Results from US20140343000A1 (priority 2011, published 2014).

system: recombinant NL4-3 virus (Renilla luciferase in nef, Gag P373S; NLRluc) in MT-2 cells; assay: whole plant or invertebrate; type: cell-based, HIV; conditions: Renilla, NL43
In short: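 MT-2 cells infected 4–5 days with NL4-3 carrying Renilla luciferase in nef and Gag P373S, with serial dilutions of inhibitor present. Antiviral activity quantified by luciferase activity, using Dual Luciferase reagents premixed with lysis buffer and read immediately.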

| Structure (SMILES) | EC50 [µM] |
| --- | --- |
| C=C(C)[C@@H]1CC[C@]2(NCCN3CCS(=O)(=O)CC3)CC[C@]3(C)[C@H](CC[C@@H]4[C@@]5(C)CC=C(c6ccc(C(=O)NS(=O)(=O)C7CC7)cc6)C(C)(C)[C@@H]5CC[C@]43C)[C@@H]12 [Example 164, N-(cyclopropylsulfonyl)-4-((1R,3aS,5aR,5bR,7aR,11aS,11bR,13aR,13bR)-3a-((2-(1,1-dioxido-4-thiomorpholinyl)ethyl)amino)-1-isopropenyl-5a,5b,8,8,11a-pentamethyl-2,3,3a,4,5,5a,5b,6,7,7a,8,11,11a,11b,12,13,13a,13b-octadecahydro-1H-cyclopenta[a]chrysen-9-yl)benzamide] | < 0.1 |

same assay, conditions: Renilla, NL43, luciferase activity in cells infected for 4-5 days with NLRluc recombinants, serial dilutions of inhibitor; class symbols (key in Table 1); read-out: EC50

| Structure (SMILES) | EC50 [µM] |
| --- | --- |
| C=C(C)[C@@H]1CC[C@]2(NCCO)CC[C@]3(C)[C@H](CC[C@@H]4[C@@]5(C)CC=C(c6ccc(C(=O)O)cc6)C(C)(C)[C@@H]5CC[C@]43C)[C@@H]12 [Example 151, 4-((1R,3aS,5aR,5bR,7aR,11aS,11bR,13aR,13bR)-3a-(2-hydroxyethylamino)-5a,5b,8,8,11a-pentamethyl-1-(prop-1-en-2-yl)-2,3,3a,4,5,5a,5b,6,7,7a,8,11,11a,11b,12,13,13a,13b-octadecahydro-1H-cyclopenta[a]chrysen-9-yl)benzoic acid] | < 0.1 |
| C=C(C)[C@@H]1CC[C@]2(NCC3CC3)CC[C@]3(C)[C@H](CC[C@@H]4[C@@]5(C)CC=C(c6ccc(C(=O)O)cc6)C(C)(C)[C@@H]5CC[C@]43C)[C@@H]12 [Example 152, 4-((1R,3aS,5aR,5bR,7aR,11aS,11bR,13aR,13bR)-3a-(cyclopropylmethylamino)-5a,5b,8,8,11a-pentamethyl-1-(prop-1-en-2-yl)-2,3,3a,4,5,5a,5b,6,7,7a,8,11,11a,11b,12,13,13a,13b-octadecahydro-1H-cyclopenta[a]chrysen-9-yl)benzoic acid] | < 0.1 |
| C=C(C)[C@@H]1CC[C@]2(NCC3CCCN(C(=O)OC(C)(C)C)C3)CC[C@]3(C)[C@H](CC[C@@H]4[C@@]5(C)CC=C(c6ccc(C(=O)O)cc6)C(C)(C)[C@@H]5CC[C@]43C)[C@@H]12 (stereo partly drawn) [Example 153, 4-((1R,3aS,5aR,5bR,7aR,11aS,11bR,13aR,13bR)-3a-((1-(tert-butoxycarbonyl)piperidin-3-yl)methylamino)-5a,5b,8,8,11a-pentamethyl-1-(prop-1-en-2-yl)-2,3,3a,4,5,5a,5b,6,7,7a,8,11,11a,11b,12,13,13a,13b-octadecahydro-1H-cyclopenta[a]chrysen-9-yl)benzoic acid] | > 0.1 |
| C=C(C)[C@@H]1CC[C@]2(NCC3CCCNC3)CC[C@]3(C)[C@H](CC[C@@H]4[C@@]5(C)CC=C(c6ccc(C(=O)O)cc6)C(C)(C)[C@@H]5CC[C@]43C)[C@@H]12 (stereo partly drawn) [Example 154, 4-((1R,3aS,5aR,5bR,7aR,11aS,11bR,13aR,13bR)-5a,5b,8,8,11a-pentamethyl-3a-(piperidin-3-ylmethylamino)-1-(prop-1-en-2-yl)-2,3,3a,4,5,5a,5b,6,7,7a,8,11,11a,11b,12,13,13a,13b-octadecahydro-1H-cyclopenta[a]chrysen-9-yl)benzoic acid] | < 0.1 |
| C=C(C)[C@@H]1CC[C@]2(NCc3ccco3)CC[C@]3(C)[C@H](CC[C@@H]4[C@@]5(C)CC=C(c6ccc(C(=O)O)cc6)C(C)(C)[C@@H]5CC[C@]43C)[C@@H]12 [Example 155, 4-((1R,3aS,5aR,5bR,7aR,11aS,11bR,13aR,13bR)-3a-(furan-2-ylmethylamino)-5a,5b,8,8,11a-pentamethyl-1-(prop-1-en-2-yl)-2,3,3a,4,5,5a,5b,6,7,7a,8,11,11a,11b,12,13,13a,13b-octadecahydro-1H-cyclopenta[a]chrysen-9-yl)benzoic acid] | < 0.1 |
| C=C(C)[C@@H]1CC[C@]2(NCC3CC3C(=O)O)CC[C@]3(C)[C@H](CC[C@@H]4[C@@]5(C)CC=C(c6ccc(C(=O)O)cc6)C(C)(C)[C@@H]5CC[C@]43C)[C@@H]12 (stereo partly drawn) [Example 157, 4-((1R,3aS,5aR,5bR,7aR,11aS,11bR,13aR,13bR)-3a-((2-carboxycyclopropyl)methylamino)-5a,5b,8,8,11a-pentamethyl-1-(prop-1-en-2-yl)-2,3,3a,4,5,5a,5b,6,7,7a,8,11,11a,11b,12,13,13a,13b-octadecahydro-1H-cyclopenta[a]chrysen-9-yl)benzoic acid] | < 0.1 |
| C=C(C)[C@@H]1CC[C@]2(NCc3ccsc3)CC[C@]3(C)[C@H](CC[C@@H]4[C@@]5(C)CC=C(c6ccc(C(=O)O)cc6)C(C)(C)[C@@H]5CC[C@]43C)[C@@H]12 [Example 158, 4-((1R,3aS,5aR,5bR,7aR,11aS,11bR,13aR,13bR)-5a,5b,8,8,11a-pentamethyl-1-(prop-1-en-2-yl)-3a-(thiophen-3-ylmethylamino)-2,3,3a,4,5,5a,5b,6,7,7a,8,11,11a,11b,12,13,13a,13b-octadecahydro-1H-cyclopenta[a]chrysen-9-yl)benzoic acid] | < 0.1 |
| C=C(C)[C@@H]1CC[C@]2(NCCN3CCOCC3)CC[C@]3(C)[C@H](CC[C@@H]4[C@@]5(C)CC=C(c6ccc(C(=O)O)cc6)C(C)(C)[C@@H]5CC[C@]43C)[C@@H]12 [Example 159, 4-((1R,3aS,5aR,5bR,7aR,11aS,11bR,13aR,13bR)-5a,5b,8,8,11a-pentamethyl-3a-(2-morpholinoethylamino)-1-(prop-1-en-2-yl)-2,3,3a,4,5,5a,5b,6,7,7a,8,11,11a,11b,12,13,13a,13b-octadecahydro-1H-cyclopenta[a]chrysen-9-yl)benzoic acid] | < 0.1 |
| C=C(C)[C@@H]1CC[C@]2(N(CCN3CCOCC3)CCN3CCOCC3)CC[C@]3(C)[C@H](CC[C@@H]4[C@@]5(C)CC=C(c6ccc(C(=O)O)cc6)C(C)(C)[C@@H]5CC[C@]43C)[C@@H]12 [Example 160, 4-((1R,3aS,5aR,5bR,7aR,11aS,11bR,13aR,13bR)-3a-(bis(2-morpholinoethyl)amino)-5a,5b,8,8,11a-pentamethyl-1-(prop-1-en-2-yl)-2,3,3a,4,5,5a,5b,6,7,7a,8,11,11a,11b,12,13,13a,13b-octadecahydro-1H-cyclopenta[a]chrysen-9-yl)benzoic acid] | < 0.1 |
| C=C(C)[C@@H]1CC[C@]2(NCc3cscn3)CC[C@]3(C)[C@H](CC[C@@H]4[C@@]5(C)CC=C(c6ccc(C(=O)O)cc6)C(C)(C)[C@@H]5CC[C@]43C)[C@@H]12 [Example 161, 4-((1R,3aS,5aR,5bR,7aR,11aS,11bR,13aR,13bR)-5a,5b,8,8,11a-pentamethyl-1-(prop-1-en-2-yl)-3a-(thiazol-4-ylmethylamino)-2,3,3a,4,5,5a,5b,6,7,7a,8,11,11a,11b,12,13,13a,13b-octadecahydro-1H-cyclopenta[a]chrysen-9-yl)benzoic acid] | < 0.1 |
| C=C(C)[C@@H]1CC[C@]2(NCc3csc(C)n3)CC[C@]3(C)[C@H](CC[C@@H]4[C@@]5(C)CC=C(c6ccc(C(=O)O)cc6)C(C)(C)[C@@H]5CC[C@]43C)[C@@H]12 [Example 162, 4-((1R,3aS,5aR,5bR,7aR,11aS,11bR,13aR,13bR)-5a,5b,8,8,11a-pentamethyl-3a-((2-methylthiazol-4-yl)methylamino)-1-(prop-1-en-2-yl)-2,3,3a,4,5,5a,5b,6,7,7a,8,11,11a,11b,12,13,13a,13b-octadecahydro-1H-cyclopenta[a]chrysen-9-yl)benzoic acid] | < 0.1 |
| CC(C)[C@@H]1CC[C@]2(NCCN3CCS(=O)(=O)CC3)CC[C@]3(C)[C@H](CC[C@@H]4[C@@]5(C)CC=C(c6ccc(C(=O)O)cc6)C(C)(C)[C@@H]5CC[C@]43C)[C@@H]12 [Example 163, 4-((1S,3aS,5aR,5bR,7aR,11aS,11bR,13aR,13bR)-3a-((2-(1,1-dioxido-4-thiomorpholinyl)ethyl)amino)-1-isopropyl-5a,5b,8,8,11a-pentamethyl-2,3,3a,4,5,5a,5b,6,7,7a,8,11,11a,11b,12,13,13a,13b-octadecahydro-1H-cyclopenta[a]chrysen-9-yl)benzoic acid] | < 0.1 |
| C=C(C)[C@@H]1CC[C@]2(NCCCN3CCOCC3)CC[C@]3(C)[C@H](CC[C@@H]4[C@@]5(C)CC=C(c6ccc(C(=O)O)cc6)C(C)(C)[C@@H]5CC[C@]43C)[C@@H]12 [Example 165, 4-((1R,3aS,5aR,5bR,7aR,11aS,11bR,13aR,13bR)-5a,5b,8,8,11a-pentamethyl-3a-(3-morpholinopropylamino)-1-(prop-1-en-2-yl)-2,3,3a,4,5,5a,5b,6,7,7a,8,11,11a,11b,12,13,13a,13b-octadecahydro-1H-cyclopenta[a]chrysen-9-yl)benzoic acid] | < 0.1 |
| C=C(C)[C@@H]1CC[C@]2(NCCc3ccncc3)CC[C@]3(C)[C@H](CC[C@@H]4[C@@]5(C)CC=C(c6ccc(C(=O)O)cc6)C(C)(C)[C@@H]5CC[C@]43C)[C@@H]12 [Example 166, 4-((1R,3aS,5aR,5bR,7aR,11aS,11bR,13aR,13bR)-5a,5b,8,8,11a-pentamethyl-1-(prop-1-en-2-yl)-3a-((2-(pyridin-4-yl)ethyl)amino)-2,3,3a,4,5,5a,5b,6,7,7a,8,11,11a,11b,12,13,13a,13b-octadecahydro-1H-cyclopenta[a]chrysen-9-yl)benzoic acid] | < 0.1 |

same assay, conditions: Renilla, NL43, luciferase activity in cells infected for 4-5 days with NLRluc recombinants, serial dilutions of inhibitor; numeric values; read-out: EC50

| Structure (SMILES) | EC50 [µM] |
| --- | --- |
| C=C(C)[C@@H]1CC[C@]2(NCC(OC)OC)CC[C@]3(C)[C@H](CC[C@@H]4[C@@]5(C)CC=C(c6ccc(C(=O)O)cc6)C(C)(C)[C@@H]5CC[C@]43C)[C@@H]12 [Example 156, 4-((1R,3aS,5aR,5bR,7aR,11aS,11bR,13aR,13bR)-3a-(2,2-dimethoxyethylamino)-5a,5b,8,8,11a-pentamethyl-1-(prop-1-en-2-yl)-2,3,3a,4,5,5a,5b,6,7,7a,8,11,11a,11b,12,13,13a,13b-octadecahydro-1H-cyclopenta[a]chrysen-9-yl)benzoic acid] | 0.12 |
